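Cells were grown in 96-well plates and exposed to each compound for 48 hours at five concentrations; endpoints were interpolated linearly between bracketing concentrations, or set to the highest concentration if not reached. At the GI50, growth is halved. TGI: concentration producing complete growth inhibition.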

Experiment in all cases: growth of human tumour cells (NCI), 48 h
The subject of test [1] is CAKI-1 renal.
The test system of test [2] is CCRF-CEM leukemia.
Test [3] deals with COLO 205 colon.
In test [4] the test system is HCC-2998 colon.
The subject of test [5] is IGROV1 ovarian.
Test [6] relates to OVCAR-8 ovarian.
Test [7] relates to SK-MEL-28 melanoma.
The subject of test [8] is TK-10 renal.
For test [9], the system named is U251 CNS.
The test system of test [10] is BT-549 breast.

`COC(=O)/C(=C\c1ccc(N(CCC#N)CCC#N)cc1)NC(=O)c1cc([N+](=O)[O-])ccc1Cl`: the TGI in test [1], in test [2], in test [3], in test [4], in [5] and in [6] was greater than 100 µM in each case. Also, the TGI in test [7], in [8] and in [9] was greater than 100 µM each time.
On to `CCOc1ccccc1NC(=O)C(=O)Cc1nc2ccccc2s1`, for which the TGI in test [1], in test [2], in test [3], in test [4], in test [5] and in test [6] was greater than 100 µM throughout. Besides, the TGI in test [7], in [8] and in test [9] was greater than 100 µM each time.
On to `[F][Sn]([F])([c]1ccccc1)[c]1ccccc1`, for which the GI50 in test [1] is 1.32 µM; in test [2], 0.688 µM; in test [3] it was 1.81 µM; in test [4], 1.63 µM; in test [5] it was 1.84 µM; in test [6], 2.05 µM. Moreover, the GI50 in [7] is 1.96 µM; in [8] it was 1.89 µM; in test [9], 1.63 µM. Further, the TGI in test [1] stood at 3.22 µM; in test [2], 3.82 µM; in test [3], 3.97 µM; in test [4], 3.04 µM; in test [5] it was 4 µM; in [6], 4.88 µM. For the same molecule, the TGI in test [7] amounted to 3.75 µM; in test [8] it was 3.44 µM; in [9] it was 3.05 µM.
Consider `O=S1(=O)OCCOS(=O)(=O)C1Cl`, for which the TGI in test [1], in test [2], in [3], in test [4], in test [5] and in test [6] was greater than 100 µM in each case. Also, the TGI in test [7] and in [8] was greater than 100 µM throughout.
On to `CC1CN1c1c(C(=O)/C=C/c2ccc(Cl)cc2)c(-c2ccccc2)nn(C)c1=O` (stereo not given), for which the TGI in test [1] was greater than 10 µM; in test [2], 5.2 µM; in test [3], 3.67 µM; in test [4] it was 4.2 µM; in [5], 8.68 µM; in test [6], 5.67 µM. Moreover, the TGI in [7] is greater than 10 µM; in test [8] it was 8.94 µM; in test [9], 5.36 µM.
In the case of `CC(C)(C)OC(=O)N1N=NC2C1C1CC(OCc3ccccc3)(OCc3ccccc3)C2O1` (stereo not given), the TGI in [1] was greater than 100 µM; in test [2], 63.5 µM; in test [3] it was greater than 100 µM; in [4], greater than 100 µM; in [5], greater than 100 µM; in test [7], 91.3 µM. In addition, in test [9], the TGI was greater than 100 µM.
For the molecule `O=C1C(Cl)=C(Nc2ccccc2O)C(=O)N1Cc1ccccc1`, the GI50 in test [1] was 26 µM; in test [2], 14.5 µM; in test [3], 24.2 µM; in test [4], 20.9 µM; in [5], 29.7 µM; in [6], 18.3 µM. Also, the GI50 was 25.1 µM in test [7], 28.7 µM in test [8] and 19.2 µM in test [9]. Besides, the TGI was 68.7 µM in [1]; 32.7 µM in test [2]; 46.8 µM in [3]; 35.3 µM in [4]; greater than 100 µM in test [5]; 34 µM in test [6]. Besides, the TGI came out at 55.4 µM in test [7], 62.1 µM in test [8] and 36.5 µM in test [9].
Regarding `N.N.NCCCCCCCCCN.O=C([O-])CC(=O)[O-].O=C([O-])CC(=O)[O-].[Pt+4].[Pt+4]`, the GI50 was 22.3 µM in [1]; 21.1 µM in test [2]; greater than 100 µM in test [3]; greater than 100 µM in [4]; greater than 100 µM in test [5]; greater than 100 µM in [6]. For the same molecule, the GI50 in test [7] was 87.5 µM; in [8], greater than 100 µM; in [9] it was 95.2 µM. In addition, the TGI in test [1] was 91.1 µM; in [2], greater than 100 µM; in test [3], greater than 100 µM; in [4] it was greater than 100 µM; in [5], greater than 100 µM; in [6], greater than 100 µM. Moreover, the TGI in test [7], in [8] and in test [9] was greater than 100 µM each time.
In the case of `OCC(O)CNc1ccnc2cc(Cl)ccc12` (stereo not given), the TGI in test [1], in test [2], in [3], in [4], in test [5] and in test [6] was greater than 100 µM each time. The TGI in [7], in test [8] and in test [9] was greater than 100 µM each time.
Take `Clc1cc(Cl)cc(Nc2ccc3cc(OCCCN4CCOCC4)ccc3n2)c1`: the GI50 in test [10] was 2.65 µM; in test [3], 1.78 µM; in [4], 1.73 µM; in test [5], 3.47 µM; in [6], 4.36 µM; in test [8] it was 2.88 µM. The TGI in test [10] is 9.44 µM; in [3], 3.67 µM; in test [4] it was 3.31 µM; in test [5], greater than 100 µM; in test [6], greater than 100 µM; in test [8], 8.21 µM.
`COC(=O)c1cccc2cccc(C(=O)Nc3ccc(Cl)cc3)c12`: the TGI in test [1] is greater than 100 µM; in test [2], greater than 67.1 µM; in test [3], greater than 62.3 µM; in [4] it was greater than 100 µM; in test [5], greater than 100 µM; in test [6] it was greater than 100 µM. The TGI in test [7], in [8] and in test [9] was greater than 100 µM each time.
Consider `O=C(O)C12CC3(C(=O)O)CC(C(=O)O)(CC(C(=O)O)(C1)C3=O)C2=O`, for which the TGI in test [10], in [1], in [2], in test [3], in [5] and in test [6] was greater than 100 µM in each case. Also, the TGI in test [7], in test [8] and in [9] was greater than 100 µM throughout.

The values are drawn from PubChem BioAssay (NCI).
